# Source: US8969516B2, “Method of hydrolysis of peptide bond” (priority 2006, dated 2015)
# Experiment: MALDI-TOF screening of Ni^2+ dependent hydrolysis in a combinatorial peptide library
# Type: physicochemical
# Settings: Ni^2+ 2 mM, pH 8.2, 10 mM Tris, score=24/tm
# Method in brief: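 Sublibraries of Ac-Gly-Ala-Ser/Thr-X-His-Z-Lys-Phe-Leu-NH2, randomized at Z and fixed at X, were hydrolyzed at 1 mM total peptide with 2 mM Ni2+ in 10 mM Tris, pH 8.2, at 37 °C or 45 °C. Cleavage was scored visually in MALDI-TOF spectra at 2, 4, 6 and 8 h.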
# [1] = CH3CO-Gly-Ala-Ser-X-His-Z-Lys-Phe-Leu-NH2 library, 37° C.
# [2] = CH3CO-Gly-Ala-Ser-X-His-Z-Lys-Phe-Leu-NH2 library, 45° C.
# [3] = CH3CO-Gly-Ala-Thr-X-His-Z-Lys-Phe-Leu-NH2 library, 45° C.
# [4] = CH3CO-Gly-Ala-Thr-X-His-Z-Lys-Phe-Leu-NH2 library, 37° C.
substance,measurement,setting,value
Ac-GASVHDKFL-NH2 [SVHD],hydrolysis score from MALDI-TOF screening,[1],0 (a score of 0 if no trace of the product of hydrolysis was seen after 8 hours of incubation)
same,hydrolysis score from MALDI-TOF screening,[2],0 (a score of 0 if no trace of the product of hydrolysis was seen after 8 hours of incubation)
Ac-GASAHMKFL-NH2 [SAHM],hydrolysis score from MALDI-TOF screening,[1],0 (a score of 0 if no trace of the product of hydrolysis was seen after 8 hours of incubation)
same,hydrolysis score from MALDI-TOF screening,[2],0 (a score of 0 if no trace of the product of hydrolysis was seen after 8 hours of incubation)
Ac-GASTHAKFL-NH2 [STHA],hydrolysis score from MALDI-TOF screening,[1],0 (a score of 0 if no trace of the product of hydrolysis was seen after 8 hours of incubation)
same,hydrolysis score from MALDI-TOF screening,[2],0 (a score of 0 if no trace of the product of hydrolysis was seen after 8 hours of incubation)
Ac-GASQHVKFL-NH2 [SQHV],hydrolysis score from MALDI-TOF screening,[1],0 (a score of 0 if no trace of the product of hydrolysis was seen after 8 hours of incubation)
same,hydrolysis score from MALDI-TOF screening,[2],4 (a score of 4 for detection at 6 hours)
Ac-GASHHKKFL-NH2 [SHHK],hydrolysis score from MALDI-TOF screening,[1],6 (a score of 6 for detection at 4 hours)
same,hydrolysis score from MALDI-TOF screening,[2],"12 (a score of 12, if it was seen to be partially hydrolysed at 2 hours)"
Ac-GASNHYKFL-NH2 [SNHY],hydrolysis score from MALDI-TOF screening,[1],3 (a score of 3 for detection at 8 hours)
same,hydrolysis score from MALDI-TOF screening,[2],3 (a score of 3 for detection at 8 hours)
Ac-GASYHRKFL-NH2 [SYHR],hydrolysis score from MALDI-TOF screening,[1],4 (a score of 4 for detection at 6 hours)
same,hydrolysis score from MALDI-TOF screening,[2],6 (a score of 6 for detection at 4 hours)
Ac-GASQHQKFL-NH2 [SQHQ],hydrolysis score from MALDI-TOF screening,[1],0 (a score of 0 if no trace of the product of hydrolysis was seen after 8 hours of incubation)
same,hydrolysis score from MALDI-TOF screening,[2],0 (a score of 0 if no trace of the product of hydrolysis was seen after 8 hours of incubation)
Ac-GASIHGKFL-NH2 [SIHG],hydrolysis score from MALDI-TOF screening,[1],0 (a score of 0 if no trace of the product of hydrolysis was seen after 8 hours of incubation)
same,hydrolysis score from MALDI-TOF screening,[2],0 (a score of 0 if no trace of the product of hydrolysis was seen after 8 hours of incubation)
Ac-GASYHPKFL-NH2 [SYHP],hydrolysis score from MALDI-TOF screening,[1],0 (a score of 0 if no trace of the product of hydrolysis was seen after 8 hours of incubation)
same,hydrolysis score from MALDI-TOF screening,[2],0 (a score of 0 if no trace of the product of hydrolysis was seen after 8 hours of incubation)
Ac-GATPHQKFL-NH2 [TPHQ],hydrolysis score from MALDI-TOF screening,[3],0 (a score of 0 if no trace of the product of hydrolysis was seen after 8 hours of incubation)
Ac-GASMHQKFL-NH2 [SMHQ],hydrolysis score from MALDI-TOF screening,[1],0 (a score of 0 if no trace of the product of hydrolysis was seen after 8 hours of incubation)
same,hydrolysis score from MALDI-TOF screening,[2],0 (a score of 0 if no trace of the product of hydrolysis was seen after 8 hours of incubation)
Ac-GATGHRKFL-NH2 [TGHR],hydrolysis score from MALDI-TOF screening,[4],0 (a score of 0 if no trace of the product of hydrolysis was seen after 8 hours of incubation)
same,hydrolysis score from MALDI-TOF screening,[3],0 (a score of 0 if no trace of the product of hydrolysis was seen after 8 hours of incubation)
Ac-GASMHNKFL-NH2 [SMHN],hydrolysis score from MALDI-TOF screening,[1],0 (a score of 0 if no trace of the product of hydrolysis was seen after 8 hours of incubation)
same,hydrolysis score from MALDI-TOF screening,[2],0 (a score of 0 if no trace of the product of hydrolysis was seen after 8 hours of incubation)
Ac-GATVHQKFL-NH2 [TVHQ],hydrolysis score from MALDI-TOF screening,[4],0 (a score of 0 if no trace of the product of hydrolysis was seen after 8 hours of incubation)
same,hydrolysis score from MALDI-TOF screening,[3],0 (a score of 0 if no trace of the product of hydrolysis was seen after 8 hours of incubation)
Ac-GATWHSKFL-NH2 [TWHS],hydrolysis score from MALDI-TOF screening,[4],0 (a score of 0 if no trace of the product of hydrolysis was seen after 8 hours of incubation)
same,hydrolysis score from MALDI-TOF screening,[3],0 (a score of 0 if no trace of the product of hydrolysis was seen after 8 hours of incubation)
Ac-GATLHPKFL-NH2 [TLHP],hydrolysis score from MALDI-TOF screening,[4],0 (a score of 0 if no trace of the product of hydrolysis was seen after 8 hours of incubation)
same,hydrolysis score from MALDI-TOF screening,[3],0 (a score of 0 if no trace of the product of hydrolysis was seen after 8 hours of incubation)
Ac-GASLHKKFL-NH2 [SLHK],hydrolysis score from MALDI-TOF screening,[1],3 (a score of 3 for detection at 8 hours)
same,hydrolysis score from MALDI-TOF screening,[2],4 (a score of 4 for detection at 6 hours)
Ac-GATVHEKFL-NH2 [TVHE],hydrolysis score from MALDI-TOF screening,[4],0 (a score of 0 if no trace of the product of hydrolysis was seen after 8 hours of incubation)
same,hydrolysis score from MALDI-TOF screening,[3],0 (a score of 0 if no trace of the product of hydrolysis was seen after 8 hours of incubation)
Ac-GASNHAKFL-NH2 [SNHA],hydrolysis score from MALDI-TOF screening,[1],0 (a score of 0 if no trace of the product of hydrolysis was seen after 8 hours of incubation)
same,hydrolysis score from MALDI-TOF screening,[2],0 (a score of 0 if no trace of the product of hydrolysis was seen after 8 hours of incubation)
Ac-GASKHDKFL-NH2 [SKHD],hydrolysis score from MALDI-TOF screening,[1],0 (a score of 0 if no trace of the product of hydrolysis was seen after 8 hours of incubation)
same,hydrolysis score from MALDI-TOF screening,[2],0 (a score of 0 if no trace of the product of hydrolysis was seen after 8 hours of incubation)
Ac-GATRHSKFL-NH2 [TRHS],hydrolysis score from MALDI-TOF screening,[4],0 (a score of 0 if no trace of the product of hydrolysis was seen after 8 hours of incubation)
same,hydrolysis score from MALDI-TOF screening,[3],0 (a score of 0 if no trace of the product of hydrolysis was seen after 8 hours of incubation)
Ac-GATRHDKFL-NH2 [TRHD],hydrolysis score from MALDI-TOF screening,[4],0 (a score of 0 if no trace of the product of hydrolysis was seen after 8 hours of incubation)
same,hydrolysis score from MALDI-TOF screening,[3],0 (a score of 0 if no trace of the product of hydrolysis was seen after 8 hours of incubation)
Ac-GATIHGKFL-NH2 [TIHG],hydrolysis score from MALDI-TOF screening,[4],0 (a score of 0 if no trace of the product of hydrolysis was seen after 8 hours of incubation)
same,hydrolysis score from MALDI-TOF screening,[3],0 (a score of 0 if no trace of the product of hydrolysis was seen after 8 hours of incubation)
Ac-GASNHDKFL-NH2 [SNHD],hydrolysis score from MALDI-TOF screening,[1],0 (a score of 0 if no trace of the product of hydrolysis was seen after 8 hours of incubation)
same,hydrolysis score from MALDI-TOF screening,[2],0 (a score of 0 if no trace of the product of hydrolysis was seen after 8 hours of incubation)
Ac-GASIHSKFL-NH2 [SIHS],hydrolysis score from MALDI-TOF screening,[1],0 (a score of 0 if no trace of the product of hydrolysis was seen after 8 hours of incubation)
same,hydrolysis score from MALDI-TOF screening,[2],0 (a score of 0 if no trace of the product of hydrolysis was seen after 8 hours of incubation)
Ac-GATWHLKFL-NH2 [TWHL],hydrolysis score from MALDI-TOF screening,[4],0 (a score of 0 if no trace of the product of hydrolysis was seen after 8 hours of incubation)
same,hydrolysis score from MALDI-TOF screening,[3],3 (a score of 3 for detection at 8 hours)
Ac-GATRHNKFL-NH2 [TRHN],hydrolysis score from MALDI-TOF screening,[4],0 (a score of 0 if no trace of the product of hydrolysis was seen after 8 hours of incubation)
same,hydrolysis score from MALDI-TOF screening,[3],0 (a score of 0 if no trace of the product of hydrolysis was seen after 8 hours of incubation)
Ac-GASGHVKFL-NH2 [SGHV],hydrolysis score from MALDI-TOF screening,[1],0 (a score of 0 if no trace of the product of hydrolysis was seen after 8 hours of incubation)
same,hydrolysis score from MALDI-TOF screening,[2],3 (a score of 3 for detection at 8 hours)
Ac-GATPHSKFL-NH2 [TPHS],hydrolysis score from MALDI-TOF screening,[3],0 (a score of 0 if no trace of the product of hydrolysis was seen after 8 hours of incubation)
Ac-GASFHSKFL-NH2 [SFHS],hydrolysis score from MALDI-TOF screening,[1],0 (a score of 0 if no trace of the product of hydrolysis was seen after 8 hours of incubation)
same,hydrolysis score from MALDI-TOF screening,[2],0 (a score of 0 if no trace of the product of hydrolysis was seen after 8 hours of incubation)
Ac-GASVHIKFL-NH2 [SVHI],hydrolysis score from MALDI-TOF screening,[1],3 (a score of 3 for detection at 8 hours)
same,hydrolysis score from MALDI-TOF screening,[2],3 (a score of 3 for detection at 8 hours)
Ac-GATSHFKFL-NH2 [TSHF],hydrolysis score from MALDI-TOF screening,[4],0 (a score of 0 if no trace of the product of hydrolysis was seen after 8 hours of incubation)
same,hydrolysis score from MALDI-TOF screening,[3],0 (a score of 0 if no trace of the product of hydrolysis was seen after 8 hours of incubation)
Ac-GASLHQKFL-NH2 [SLHQ],hydrolysis score from MALDI-TOF screening,[1],0 (a score of 0 if no trace of the product of hydrolysis was seen after 8 hours of incubation)
same,hydrolysis score from MALDI-TOF screening,[2],0 (a score of 0 if no trace of the product of hydrolysis was seen after 8 hours of incubation)
Ac-GASPHRKFL-NH2 [SPHR],hydrolysis score from MALDI-TOF screening,[1],0 (a score of 0 if no trace of the product of hydrolysis was seen after 8 hours of incubation)
same,hydrolysis score from MALDI-TOF screening,[2],0 (a score of 0 if no trace of the product of hydrolysis was seen after 8 hours of incubation)
Ac-GATQHMKFL-NH2 [TQHM],hydrolysis score from MALDI-TOF screening,[4],0 (a score of 0 if no trace of the product of hydrolysis was seen after 8 hours of incubation)
same,hydrolysis score from MALDI-TOF screening,[3],0 (a score of 0 if no trace of the product of hydrolysis was seen after 8 hours of incubation)
Ac-GATKHGKFL-NH2 [TKHG],hydrolysis score from MALDI-TOF screening,[4],0 (a score of 0 if no trace of the product of hydrolysis was seen after 8 hours of incubation)
same,hydrolysis score from MALDI-TOF screening,[3],0 (a score of 0 if no trace of the product of hydrolysis was seen after 8 hours of incubation)
Ac-GATIHQKFL-NH2 [TIHQ],hydrolysis score from MALDI-TOF screening,[4],0 (a score of 0 if no trace of the product of hydrolysis was seen after 8 hours of incubation)
same,hydrolysis score from MALDI-TOF screening,[3],0 (a score of 0 if no trace of the product of hydrolysis was seen after 8 hours of incubation)
